{
  "source": "patent US11179371B2",
  "about": "“Triazole benzamide derivatives as GPR142 agonists” (Boehringer Ingelheim International GmbH, priority 2018, dated 2021)",
  "data": [
    {"molecular_target": "T1, human GPR142 receptor (Homo sapiens, UniProt Q7Z601)", "T1 construct": "Gene ID: 350383) was cloned; expressed in transfected cells", "T1 sequence (Q7Z601 1-462)": "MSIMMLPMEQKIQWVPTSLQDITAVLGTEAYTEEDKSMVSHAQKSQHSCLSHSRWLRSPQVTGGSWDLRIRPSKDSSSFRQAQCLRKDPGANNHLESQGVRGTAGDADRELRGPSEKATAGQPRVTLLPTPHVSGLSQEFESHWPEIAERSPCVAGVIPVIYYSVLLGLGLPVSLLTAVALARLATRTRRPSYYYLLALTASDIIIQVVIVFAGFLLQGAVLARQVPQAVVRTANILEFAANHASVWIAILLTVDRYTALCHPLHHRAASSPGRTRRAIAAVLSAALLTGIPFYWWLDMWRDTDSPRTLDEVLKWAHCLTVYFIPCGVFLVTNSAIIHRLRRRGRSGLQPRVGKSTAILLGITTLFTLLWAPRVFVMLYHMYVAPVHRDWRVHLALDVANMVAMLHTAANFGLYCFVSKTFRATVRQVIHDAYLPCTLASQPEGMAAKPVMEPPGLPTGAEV", "assay": "IP1 accumulation HTRF assay for GPR142 agonist activity in HEK293 FLPinTREX cells", "assay_type": "cell-based", "details": "HEK293 FLPinTREX cells stably expressing human GPR142, IP1 generation (IP-One HTRF), 60 minutes at 37° C.", "method": "This assay allows monitoring activity of compounds acting on Gq-coupled receptors. The principle of the assay is based on the competition between IP1 generated in the cells with d2-labeled IP1 for binding to a monoclonal anti-IP1 […] cryptate that allows for measuring quantitative changes using the Homogeneous Time Resolved Fluorescence. LiCl is added to the cell stimulation buffer, causing IP1 to accumulate upon receptor activation.\nThe open reading frame encoding the human GPR142 receptor (primary accession number: NM_181790; Gene ID: 350383) was cloned into the pcDNA5/FRT/TO vector for stable, and inducible expression using the Flp-In™ T-REx™ technology in HEK293 FLPinTREX cells. For stable expression, HEK293 FLPinTREX cells were co-transfected with the vector encoding human GPR142 and the pOG44 plasmid that constitutively expresses the Flp recombinase for stable integration of the human GPR142 into the genome of the Flp-In™ T-REx™ host cell line. Stably expressing clones were obtained by hygromycin (100 μg/ml) selection. To test for GPR142 agonist activity the human GPR142 receptor cell clone was thawed at 37° C. and immediately diluted with cell culture medium (Hams F12 medium; 10% FBS, 15 μg/ml Blasticidin, 100 μg/ml Hygromycin B). After centrifugation, the cell pellet was resuspended in medium, and distributed into the assay well plates (10000 cells/well; 20 μl/well). Receptor expression was induced by adding 0.1 μg/ml Doxycyclin to the culture medium. The plates were incubated for one hour at room temperature, followed by a 24 hours incubation at 37° C./5% CO2. After washing the cells in the plate twice with 60 μl assay buffer (10 mM HEPES, 1 mM CaCl2, 0.5 mM MgCl2, 4.2 mM KCl, 146 mM NaCl, 5.5 mM Glucose, 50 mM LiCl and 0.1% BSA, pH 7.4; 20 μl buffer remained in the wells after washing), 10 μl per well of test compound diluted in assay buffer was added to the wells. The assay plate was incubated for 60 minutes at 37° C. Then 5 μl per well of Anti-IP1-Cryptate Tb solution (prepared by 1:33 dilution of stock with Lysis buffer from IP-One Kit) and 5 μl per well of IP1-d2 (Prepared by 1:33 dilution of stock with Lysis buffer from IP-One Kit) dilution were added, followed by another 60 minutes incubation (light protected, room temperature). The emissions at 615 nm and 665 nm (excitation wavelength: 320 nm) were measured on the EnVision™ reader (PerkinElmer). The ratio between the emission at 665 nm and 615 was calculated by the reader.\nEach assay microtiter plate contained 8 wells in with vehicle controls instead of compound (100% CTL; low values, negative control) and 8 wells with a reference GPR142 agonist (200% CTL; high values; positive control). An IP1 standard curve was prepared according to the manufacturer.\nThe ratio between the emission at 665 nm and the emission at 615 nm (Em665/Em615 ratio) was calculated and the signals for the test items were normalized using the positive and negative controls by the following formula: 100−(100×[(ratio(sample)−ratio(low))/(ratio(high)−ratio(low))].", "units": {"EC50": "nM"}, "values": [
      {"smiles": "Cc1ncn(C)c1-c1cn(-c2cccc(C(=O)Nc3cccc(Cl)c3)c2)nn1", "note": "[Example 17]", "EC50": 0.95},
      {"smiles": "Cc1ccc(C(=O)Nc2cccc(OC(F)(F)F)c2)cc1-n1cc(-c2cncn2C)nn1", "note": "[Example 6]", "EC50": 0.21},
      {"smiles": "Cn1cncc1-c1cn(-c2cccc(C(=O)Nc3cccc(C(F)(F)F)c3F)c2)nn1", "note": "[Example 9]", "EC50": 0.45},
      {"smiles": "Cn1cncc1-c1cn(-c2cccc(C(=O)Nc3cccc(Cl)c3)c2)nn1", "note": "[Example 3]", "EC50": 0.21},
      {"smiles": "Cn1cncc1-c1cn(-c2cccc(C(=O)Nc3cc(F)cc(C(F)(F)F)c3)c2)nn1", "note": "[Example 10]", "EC50": "< 0.38"},
      {"smiles": "Cc1cccc(NC(=O)c2cccc(-n3cc(-c4cncn4C)nn3)c2)c1", "note": "[Example 7]", "EC50": 0.37},
      {"smiles": "Cn1cncc1-c1cn(-c2cccc(C(=O)Nc3cccc(OC(F)(F)F)c3)c2)nn1", "note": "[Example 4]", "EC50": 0.47},
      {"smiles": "Cc1ncn(C)c1-c1cn(-c2cccc(C(=O)Nc3cccc(C(F)(F)F)c3)c2)nn1", "note": "[Example 8, 3-[4-(1,4-Dimethyl-1H-imidazol-5-yl)-1H-1,2,3-triazol-1-yl]-N-[3-(trifluoromethyl)-phenyl]benzamide]", "EC50": 0.63},
      {"smiles": "COC(=O)c1cccc(NC(=O)c2cccc(-n3cc(-c4cncn4C)nn3)c2)c1", "note": "[Example 12]", "EC50": 0.73},
      {"smiles": "Cn1cncc1-c1cn(-c2cccc(C(=O)Nc3cccc(C(F)(F)F)c3)c2)nn1", "note": "[Example 2, 3-[4-(1-Methyl-1H-imidazol-5-yl)-1H-1,2,3-triazol-1-yl]-N-[3-(trifluoromethyl)-phenyl]benzamide]", "EC50": 0.05},
      {"smiles": "Cn1cncc1-c1cn(-c2cccc(C(=O)Nc3cccc(OC(F)(F)C(F)F)c3)c2)nn1", "note": "[Example 20]", "EC50": 0.64},
      {"smiles": "Cn1cncc1-c1cn(-c2cccc(C(=O)Nc3cccc([N+](=O)[O-])c3)c2)nn1", "note": "[Example 15]", "EC50": "< 0.38"},
      {"smiles": "Cc1cc(Br)cc(NC(=O)c2cccc(-n3cc(-c4cncn4C)nn3)c2)c1", "note": "[Example 16]", "EC50": "< 0.38"},
      {"smiles": "Cc1ncn(C)c1-c1cn(-c2cccc(C(=O)Nc3cccc(OC(F)(F)F)c3)c2)nn1", "note": "[Example 18]", "EC50": 0.64},
      {"smiles": "Cc1ccc(C(=O)Nc2cccc(Cl)c2)cc1-n1cc(-c2cncn2C)nn1", "note": "[Example 5]", "EC50": 0.37},
      {"smiles": "Cn1cncc1-c1cn(-c2cccc(C(=O)Nc3cccc(C#N)c3)c2)nn1", "note": "[Example 11]", "EC50": 0.74},
      {"smiles": "COc1cccc(NC(=O)c2cccc(-n3cc(-c4cncn4C)nn3)c2)c1", "note": "[Example 14]", "EC50": 0.86},
      {"smiles": "CN(C)c1cccc(NC(=O)c2cccc(-n3cc(-c4cncn4C)nn3)c2)c1", "note": "[Example 13]", "EC50": 0.85},
      {"smiles": "Cn1cncc1-c1cn(-c2cccc(C(=O)Nc3cccc(OC(F)F)c3)c2)nn1", "note": "[Example 19]", "EC50": "< 0.38"},
      {"smiles": "Cc1ccc(C(=O)Nc2cccc(C(F)(F)F)c2)cc1-n1cc(-c2cncn2C)nn1", "note": "[Example 1]", "EC50": 0.4}
    ]}
  ]
}
